The record followed here is ChEMBL document CHEMBL3621111, “In vitro COX-1 and COX-2 enzyme inhibitory activities of iridoids from Penstemon barbatus, Castilleja tenuiflora, Cresentia alata and Vitex mollis” (Bioorg Med Chem Lett, 2015).

Assay [1] concerns the target Prostaglandin G/H synthase 1 (Homo sapiens) (UniProt P23219). In words: Inhibition of COX1 (unknown origin) assessed as PGH2 production at 10 uM by measuring […] level by enzyme immunoassay.
The target is the same in assay [2]. In words: Inhibition of COX1 (unknown origin) assessed as PGH2 production at 35 uM by measuring […] level by enzyme immunoassay.
The target is the same in assay [3]. In words: Inhibition of COX1 (unknown origin) assessed as PGH2 production at 100 uM by measuring […] level by enzyme immunoassay.

Prostaglandin G/H synthase 1 (Homo sapiens), sequence (P23219 whole entry): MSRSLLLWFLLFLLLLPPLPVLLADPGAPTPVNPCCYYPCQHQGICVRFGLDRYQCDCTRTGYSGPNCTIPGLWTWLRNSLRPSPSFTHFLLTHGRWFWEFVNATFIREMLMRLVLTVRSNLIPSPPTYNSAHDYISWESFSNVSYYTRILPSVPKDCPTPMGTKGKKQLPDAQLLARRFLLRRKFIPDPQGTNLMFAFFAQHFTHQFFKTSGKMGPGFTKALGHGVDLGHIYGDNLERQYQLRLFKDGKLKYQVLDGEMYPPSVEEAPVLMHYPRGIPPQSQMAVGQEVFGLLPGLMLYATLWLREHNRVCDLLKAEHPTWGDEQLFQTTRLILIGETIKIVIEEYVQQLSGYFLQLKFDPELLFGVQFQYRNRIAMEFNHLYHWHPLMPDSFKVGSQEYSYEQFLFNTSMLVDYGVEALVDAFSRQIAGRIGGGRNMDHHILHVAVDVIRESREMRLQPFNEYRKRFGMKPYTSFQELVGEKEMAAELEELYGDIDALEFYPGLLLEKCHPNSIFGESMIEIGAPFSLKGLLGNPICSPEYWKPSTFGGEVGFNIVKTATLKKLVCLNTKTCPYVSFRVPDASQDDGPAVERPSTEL

Turning to `COC(=O)C1=CO[C@@H](O[C@@H]2O[C@H](CO)[C@@H](O)[C@H](O)[C@H]2O)[C@H]2[C@@H]1CC[C@]2(C)O`, the inhibition in assay [1] was under 30%; in assay [2], 42.6%; in assay [3] it was 42.7%.

For `COc1ccc(C(=O)O[C@H]2[C@@H]3C=CO[C@@H](O[C@@H]4O[C@H](CO)[C@@H](O)[C@H](O)[C@H]4O)[C@@H]3[C@@]3(CO)O[C@@H]23)cc1OC`, the figures for the inhibition in assay [1], in assay [2] and in assay [3] were 38.2%, 38.6% and 39.1%, respectively.

For the compound `C=C1[C@H]2[C@H](O[C@@H]3O[C@H](CO)[C@@H](O)[C@H](O)[C@H]3O)OC=C(C(=O)O)[C@H]2C[C@@H]1O`, the inhibition in assay [1] was 51.7%; in assay [2], 51.4%; in assay [3], 48.2%.

In the case of `OC[C@H]1O[C@@H](O[C@@H]2OC=C[C@H]3[C@H](O)[C@@H]4O[C@]4(CO)[C@@H]23)[C@H](O)[C@@H](O)[C@@H]1O`, the inhibition in assay [1] is 44.2%; in assay [2], 47.6%; in assay [3], 63.7%.

As for `C[C@@H]1CC[C@]2(O)C(C=O)=CO[C@@H](O[C@@H]3O[C@H](CO)[C@@H](O)[C@H](O)[C@H]3O)[C@H]12`, the inhibition stood at 36.3% in assay [1], 36.6% in assay [2] and 39.9% in assay [3].

For the compound `COC(=O)C1=CO[C@@H](O[C@@H]2O[C@H](CO)[C@@H](O)[C@H](O)[C@H]2O)[C@@H]2[C@@H](C)[C@@H](O)C[C@H]12`, the results for the inhibition in assay [1], in assay [2] and in assay [3] were 51.2%, 51.5% and 50.5%, respectively.

For `O=C(OCC1=C[C@@H](O)[C@@H]2C=CO[C@@H](O[C@@H]3O[C@H](CO)[C@@H](O)[C@H](O)[C@H]3O)[C@H]12)c1ccc(O)cc1`, the inhibition in assay [1] was 40.3%; in assay [2], 40.8%; in assay [3] it was 43.4%.

As for `COC(=O)C1=CO[C@@H](O[C@@H]2O[C@H](CO)[C@@H](O)[C@H](O)[C@H]2O)[C@@H]2[C@H](C)[C@@H](O)C[C@H]12`, the results for the inhibition in assay [1], in assay [2] and in assay [3] were 33.4%, under 30% and under 30%, respectively.

Turning to `CC(=O)O[C@]1(C)C[C@@H](O)[C@]2(O)C=CO[C@@H](O[C@@H]3O[C@H](CO)[C@@H](O)[C@H](O)[C@H]3O)[C@@H]21`, the figures for the inhibition in assay [1], in assay [2] and in assay [3] were 38.5%, 38.6% and 39.1%, respectively.

For `OCC1=CC[C@@H]2C=CO[C@@H](O[C@@H]3O[C@H](CO)[C@@H](O)[C@H](O)[C@H]3O)[C@H]12`, the inhibition in assay [1] is 52.7%; in assay [2] it was 49.9%; in assay [3], 47.5%.

On to `COc1ccc(C(=O)O[C@@H]2C=C(CO)[C@H]3[C@H](O[C@@H]4O[C@H](CO)[C@@H](O)[C@H](O)[C@H]4O)OC=C[C@H]32)cc1`, for which the inhibition came out at 35% in assay [1], 34.3% in assay [2] and 32.8% in assay [3].

For the compound `O=C(O)C1=CO[C@@H](O[C@@H]2O[C@H](CO)[C@@H](O)[C@H](O)[C@H]2O)[C@@H]2C(CO)=CC[C@H]12`, the inhibition came out at 55.7% in assay [1], 54.1% in assay [2] and 55.3% in assay [3].

For the compound `OCC1=C[C@@H](O)[C@@H]2C=CO[C@@H](O[C@@H]3O[C@H](CO)[C@@H](O)[C@H](O)[C@H]3O)[C@H]12`, the inhibition in assay [1] is 49.9%; in assay [2], 48.2%; in assay [3], 50.2%.

`COC(=O)C1=CO[C@@H](O[C@@H]2O[C@H](CO)[C@@H](O)[C@H](O)[C@H]2O)[C@@H]2[C@H](C)C[C@@H](O)[C@]12O`: the inhibition is 33.2% in assay [1], 33.4% in assay [2] and 51.7% in assay [3].

With `C[C@@H]1CC[C@@H]2C(C=O)=CO[C@@H](O[C@@H]3O[C@H](CO)[C@@H](O)[C@H](O)[C@H]3O)[C@H]12`, the inhibition was determined as 43% in assay [1], 48% in assay [2] and 73.3% in assay [3].

In the case of `C[C@@H]1[C@H]2[C@H](O[C@@H]3O[C@H](CO)[C@@H](O)[C@H](O)[C@H]3O)OC=C(C(=O)O)[C@H]2C[C@@H]1O`, the values for the inhibition in assay [1], in assay [2] and in assay [3] were 36.9%, 36% and 35.4%, respectively.

In general, inhibition refers to the percentage by which the read-out fell short of the control.
